A value given as a limit tells only on which side of the number the result lay.

In one data set the test system is breastfed infants. The following applies: in vivo.
Data set [1] is described as follows: estimation of relative infant dose (RID, RIDF, RIDFP) from milk. The class given is in vivo, human. The following applies: milk concentration assumed = LLOQ 5.7 ng/mL. The text has this:
The maternal weight-adjusted infant dose, the relative infant dose (RID%), is often used to assess infant exposure to drugs through breastfeeding. This parameter is the percentage of an infant dose of drug via a full diet of human milk relative to the maternal dose (mg/kg) over the same period. An RID of […] is often considered a safety threshold in risk assessments. (1) RID (%)=100 × infant daily oral dose per kg from milk/maternal daily dose per kg
The fraction’s numerator is computed as the product of the measured drug concentration present in milk times estimated milk intake of 150 mL/kg/day.
The RID calculation was adjusted to include parameters for bioavailability and extended dosing intervals, which will improve the interpretation of RID in the setting of subcutaneous semaglutide injection.
First, we will contextualize bioavailability in the RID by including these parameters in the RID calculation (RIDF). […] The oral bioavailability of semaglutide is low but unknown per a medical information request at Novo Nordisk (B. Shah, personal communication, 20 June 2024). As such, oral bioavailability will be overestimated using the available parameter for semaglutide formulated with the permeability enhancer, SNAC (F < 0.01), though SNAC will not be present in this scenario [32]. […]

For data set [2] the following is noted: cited from earlier work. The text has this:
First, we will contextualize bioavailability in the RID by including these parameters in the RID calculation (RIDF). […] The oral bioavailability of semaglutide is low but unknown per a medical information request at Novo Nordisk (B. Shah, personal communication, 20 June 2024). As such, oral bioavailability will be overestimated using the available parameter for semaglutide formulated with the permeability enhancer, SNAC (F < 0.01), though SNAC will not be present in this scenario [32]. This overestimate will assist in co ... || However, rather than simply converting the weekly dose to an equivalent daily dose, the estimation of RID can be further extrapolated to estimate steady-state conditions over the full week by considering the plasma concentration-time profile of the […]. […] Overgaard et al. published population pharmacokinetic parameters of semaglutide. According to this publication, the disposition of semaglutide after subcutaneous administration follows a 2-compartment model with first-order absorption from the injection ...

Excerpt for breastfed infants: This study utilized data collected from the InfantRisk Human Milk Biorepository (HMB) which has been approved on 22 February 2021 by the institutional ethics committee (A21-4214). The biorepository targets the collection of milk samples and self-related health information for mother and infant dyad via a questionnaire. […] Therefore, we prioritized collecting samples immediately before any dose changes, even if this occurred prior to reaching steady state concentrations, to maximize the informativeness of our analysis. Participants were asked to express milk samples after a minimum of three administrations of the same dose. Milk samples collected from 0, 12, and 24 h post-administration and their corresponding de-identified health questionnaires were released for 8 different individuals from the HMB for this study. If milk samples for multiple doses were provided, samples were only released from the biorepository for the highest dose collected closest to steady-state.

`CC[C@H](C)[C@H](NC(=O)[C@H](Cc1ccccc1)NC(=O)[C@H](CCC(=O)O)NC(=O)[C@H](CCCCNC(=O)COCCOCCNC(=O)COCCOCCNC(=O)CC[C@H](NC(=O)CCCCCCCCCCCCCCCCC(=O)O)C(=O)O)NC(=O)[C@H](C)NC(=O)[C@H](C)NC(=O)[C@H](CCC(N)=O)NC(=O)CNC(=O)[C@H](CCC(=O)O)NC(=O)[C@H](CC(C)C)NC(=O)[C@H](Cc1ccc(O)cc1)NC(=O)[C@H](CO)NC(=O)[C@H](CO)NC(=O)[C@@H](NC(=O)[C@H](CC(=O)O)NC(=O)[C@H](CO)NC(=O)[C@@H](NC(=O)[C@H](Cc1ccccc1)NC(=O)[C@@H](NC(=O)CNC(=O)[C@H](CCC(=O)O)NC(=O)C(C)(C)NC(=O)[C@@H](N)Cc1cnc[nH]1)[C@@H](C)O)[C@@H](C)O)C(C)C)C(=O)N[C@@H](C)C(=O)N[C@@H](Cc1c[nH]c2ccccc12)C(=O)N[C@@H](CC(C)C)C(=O)N[C@H](C(=O)N[C@@H](CCCNC(=N)N)C(=O)NCC(=O)N[C@@H](CCCNC(=N)N)C(=O)NCC(=O)O)C(C)C` [semaglutide]: in the data set with breastfed infants, the “infant growth, all infants” value is recorded as “unremarkable” and the “infant milestones, all infants” value is on record as “meeting or surpassing expected milestones”. Besides, the “RIDF (%), maximum possible” value in data set [1] (Equation (2), mean maternal weight 93 kg, mean 0.56 mg/week SC, F(oral) 0.01, F(S.C.) 89%, weekly dose/7) is listed as <1.12%. Further, the “maximum dose to the infant possible without detecting semaglutide in milk” value in data set [1] (infant milk intake 150 mL/kg/day) is on record as 855 ng/kg/day. Moreover, in data set [2] (semaglutide formulated with the permeability enhancer SNAC, used as overestimate), the “oral bioavailability (F)” value was < 0.01. Moreover, in data set [2] (subcutaneous), the subcutaneous bioavailability was 89%.
